# Source: ChEMBL document CHEMBL1122120, “Brain levels and metabolism of the dopaminergic agonist 2-amino-6,7-dihydroxytetrahydronaphthalene after administration of various prodrugs” (J Med Chem, 1982)
# Legend:
# [1] = Tested for the stability in water after 24h, activity expressed as percentage hydrolysis; format: physicochemical; details: read-out: Hydrolysis
# [2] = Tested for the stability in water after 6h, activity expressed as percentage hydrolysis; format: physicochemical; details: read-out: Hydrolysis
Compound,degraded at 24 h [1] [%],degraded at 6 h [2] [%]
CC(=O)Oc1cc2c(cc1OC(C)=O)CC(N)CC2 (stereo not drawn),3.74,1.64
CC(C)(C)C(=O)Oc1cc2c(cc1OC(=O)C(C)(C)C)CC(N)CC2 (stereo not drawn),0.02,0.01
NC1CCc2cc(OC(=O)c3ccccc3)c(OC(=O)c3ccccc3)cc2C1 (stereo not drawn),0.06,0.03
CC(C)C(=O)Oc1cc2c(cc1OC(=O)C(C)C)CC(N)CC2 (stereo not drawn),0.23,0.06
